From paper PMC6395926, “Mass Balance and Drug Interaction Potential of Intravenous Eravacycline Administered to Healthy Subjects” (Antimicrobial Agents and Chemotherapy, 2019)
Like-named read-outs stand apart in the source and are kept apart here.

Legend:
[1] = Drug interaction study with itraconazole (CYP3A4 inhibitor): plasma PK of i.v. eravacycline and metabolites; format: in vivo, human; settings: for AUC(0-t) / Cmax / clearance / half-life / Vd: human, plasma, iv, mean ± SD, n = 10; for Vd: read-out: Vss
Experimental: Two single-center, open-label studies were conducted to evaluate the effects of itraconazole (CYP3A4 inhibitor) and rifampin (CYP3A4 inducer) on the pharmacokinetics of i.v. eravacycline in healthy subjects.
(ii) Study design. Each study included a 28-day screening period, a 13-day treatment period (19 days for rifampin), and an end-of-study visit 2 weeks after the last dose of study drug. Eravacycline was administered in the morning as a 1-mg/kg i.v. infusion over 60 min on day 1 with a second dose on day 10 (itraconazole study) or day 17 (rifampin study). For the itraconazole study, 200 mg oral itraconazole was administered q12h on day 8 and q24h on days 9 and 10. For the rifampin study, 600 mg oral rifampin was administered q24h from day 8 to day 17. All study treatments were administered in the fasting state.
(iii) Study assessments. Blood samples for PK analysis of eravacycline and its metabolites, TP-498, TP-6208, and TP-034, were collected predose and 1, 2, 4, 6, 8, 12, 24, 36, and 48 h after the start of the i.v. infusion on day 1 and day 10 (itraconazole) or day 1 and day 17 (rifampin). Safety assessments included AEs, clinical laboratory safety tests (hematology, serum chemistry, electrolytes, coagulation, urinalysis, and lipid profile), vital signs, physical examinations, and 12-lead ECG.
Concentrations of eravacycline, TP-498, and TP-6208 in human plasma samples were measured by LC-tandem MS after solid-phase extraction over a calibration range of 5.00 to 500 ng/ml. The LLOQ for eravacycline, TP-498, TP-6208, and TP-034 in human plasma was 5.00 ng/ml. Samples with eravacycline initial concentrations above the upper limit of quantification (500 ng/ml) were diluted appropriately with control blank human plasma and reanalyzed. There was no interference seen when human plasma was fortified with eravacycline, TP-498, TP-6208, and either itraconazole or rifampin.
(iv) Pharmacokinetic analysis. PK assessments included Cmax, Tmax, AUC0–24, AUC0–t, t1/2, CL, and Vss. Actual sampling time was used for PK calculations. PK parameters were derived by noncompartmental analysis. Descriptive statistics were calculated for analyte concentrations at each evaluation time point and for all quantitative PK parameters of eravacycline, TP-498, TP-6208, and TP-034 for day 1 and day 10 (day 17 for rifampin). The effect of itraconazole or rifampin on the PK profile of i.v. eravacycline was evaluated by comparing log-transformed PK parameters (Cmax and AUC0–t) associated with the administration of study drug on day 1 and day 10 (itraconazole) or day 1 and day 17 (rifampin) using paired t tests. The ratio and 90% confidence interval (CI) were presented after back transformation to the original scale. Pharmacokinetic variables were calculated using WinNonlin Professional.

[2] = Mass balance study: PK of total radioactivity in whole blood and plasma; format: in vivo, human; settings: for Cmax, total radioactivity: geometric mean (%CV), n = 5
Excerpt: (ii) Study design. This was a single-center, open-label study of a single i.v. dose of [^14C]eravacycline to assess the mass balance recovery and PK of eravacycline. The primary objectives were to determine mass balance recovery, determine routes and rates of excretion, provide metabolite profiling and structural identification, and assess the PK of radioactivity in plasma and whole blood. Subjects were screened for inclusion in the study, including a detailed medical history, physical examination, and laboratory evaluations, in the 28 days before dosing. Eligible subjects were admitted to the clinical study unit at approximately 21:00 on the evening prior to study drug administration (day −1) and remained on site until 240 h postdose for collection of urine, feces, and blood samples. After an overnight fast, each subject received 60 mg [^14C]eravacycline containing not more than 3.8 MBq (105 μCi) ^14C as a single i.v. infusion over 60 min.
(iv) Determination of radioactivity. […] Plasma and whole-blood concentrations of total radioactivity were determined using an analytical method at Quotient Bioresearch (Rushden, Northamptonshire, UK). The lower limit of quantification (LLOQ) for total radioactivity was 11 to 13 ng equivalents (equiv)/ml in plasma and 41 to 46 ng equiv/g in whole blood.
(vi) Study assessments. PK parameters were determined for total radioactivity in plasma and whole blood. Eravacycline, TP-498, and TP-6208 concentrations in plasma were quantified using a validated assay with internal standards. […]
(viii) Study analysis. Descriptive statistics (mean, median, standard deviation [SD], percent coefficient of variation [%CV], minimum, maximum, number, geometric mean, and geometric %CV) were calculated for all concentration data. Pharmacokinetic parameters were calculated using Phoenix WinNonlin v6.3 (Certera USA, Inc.).

[3] = eravacycline plus itraconazole (day 10) vs eravacycline alone (day 1), 1 mg/kg i.v.
[4] = day 1, eravacycline 1 mg/kg i.v. alone
[5] = day 10, eravacycline 1 mg/kg i.v. with itraconazole

Ratio of geometric mean AUC0–t, day 10/day 1 [1, 3]: 134.3%
Ratio of geometric mean Cmax, day 10/day 1 [1, 3]: 107.9%
decrease of CL with itraconazole ([1]; eravacycline plus itraconazole day 10 vs day 1): about 30%
AUC(0-t) [1, 4]: 4320 ng·h/mL
Cmax [1, 4]: 1100 ng/mL
clearance [1, 4]: 3.79 ± 1.03 mL/min/kg
half-life [1, 4]: 14 ± 2.4 h
Vd [1, 4]: 3.42 ± 0.73 L/kg
AUC(0-t) [1, 5]: 5700 ng·h/mL
Cmax [1, 5]: 1160 ng/mL
clearance [1, 5]: 2.57 ± 0.5 mL/min/kg
half-life [1, 5]: 19 ± 3.6 h
Vd [1, 5]: 3.37 ± 0.56 L/kg
Cmax, total radioactivity ([2]; plasma): 893 (18.0) ng equiv/ml
time postdose total radioactivity remained quantifiable ([2]; plasma, majority of subjects): up to 241 h
Cmax, total radioactivity ([2]; whole blood): 911 (14.5) ng equiv/ml
Structure (SMILES): CN(C)[C@@H]1C(O)=C(C(N)=O)C(=O)[C@@]2(O)C(O)=C3C(=O)c4c(O)c(NC(=O)CN5CCCC5)cc(F)c4C[C@H]3C[C@@H]12 [eravacycline]
